From patent publication US20040010001A1, “Methods and compositions for modulating cell proliferation and cell death” (priority 1999, published 2004)
Read-outs that look alike come from different tables or passages of the source.

Test system: Human prostate PC3 tumor cells
Experiment: aFGF/bFGF-induced resistance and reversal by suramin, sulforhodamine B assay
Type: cell-based
Experimental: The experimental conditions are described briefly below. […] Cell number was measured using the sulforhodamine B assay which measures the total protein concentration. […] The FGF-induced resistance was dependent on the FGF concentrations, with a higher resistance at higher FGF concentrations.

[1] = Homo sapiens, read-out: IC50, Control (drug treatment only, without FGF treatment), No suramin, drug 96 hours
[2] = Homo sapiens, read-out: IC50, aFGF 0.3 ng/ml + bFGF 1 ng/ml, No suramin, FGF pretreatment 96 hours, drug 96 hours
[3] = Homo sapiens, read-out: IC50, aFGF 1 ng/ml + bFGF 3 ng/ml, No suramin, FGF pretreatment 96 hours, drug 96 hours
[4] = no suramin, relative to control
[5] = read-out: IC50, Control (without FGF treatment), Suramin, 15 μM, drug 96 hours with 15 μM suramin
[6] = read-out: IC50, aFGF 0.3 ng/ml + bFGF 1 ng/ml, With suramin, FGF pretreatment 96 hours, drug 96 hours with 15 micromolar suramin
[7] = read-out: IC50, aFGF 1 ng/ml + bFGF 3 ng/ml, With suramin, FGF pretreatment 96 hours, drug 96 hours with 15 micromolar suramin

O=C1NC(=S)NC(=O)C1C(=O)Nc1ccccc1 [Merbarone]
IC50 [1]: 23 µM
IC50 [2]: 46.7 µM
IC50 [3]: 80.8 µM
Resistance, Folds, aFGF 0.3 ng/ml + bFGF 1 ng/ml [4]: 1.67 Folds
Resistance, Folds, aFGF 1 ng/ml + bFGF 3 ng/ml [4]: 2.89 Folds
IC50 [5]: 28.6 µM
IC50 [6]: 24.9 µM
IC50 [7]: 29.4 µM

CN(Cc1cnc2nc(N)nc(N)c2n1)c1ccc(C(=O)N[C@@H](CCC(=O)O)C(=O)O)cc1 [Methotrexate]
IC50 [1]: 32.1 µM
IC50 [2]: 60.6 µM
IC50 [3]: 80.5 µM
Resistance, Folds, aFGF 0.3 ng/ml + bFGF 1 ng/ml [4]: 1.89 Folds
Resistance, Folds, aFGF 1 ng/ml + bFGF 3 ng/ml [4]: 2.51 Folds
IC50 [5]: 28.8 µM
IC50 [6]: 30.6 µM
IC50 [7]: 33.7 µM

O=C(CCBr)N1CCN(C(=O)CCBr)CC1 [Pipobroman]
IC50 [1]: 136 µM
IC50 [2]: 194 µM
IC50 [3]: 184 µM
Resistance, Folds, aFGF 0.3 ng/ml + bFGF 1 ng/ml [4]: 1.42 Folds
Resistance, Folds, aFGF 1 ng/ml + bFGF 3 ng/ml [4]: 1.35 Folds
IC50 [5]: 94 µM
IC50 [6]: 125 µM
IC50 [7]: 109 µM

COc1cc(NCc2ccc3nc(N)nc(N)c3c2C)cc(OC)c1OC [Trimetrexate]
IC50 [1]: 0.0336 µM
IC50 [2]: 0.054 µM
IC50 [3]: 0.0959 µM
Resistance, Folds, aFGF 0.3 ng/ml + bFGF 1 ng/ml [4]: 1.61 Folds
Resistance, Folds, aFGF 1 ng/ml + bFGF 3 ng/ml [4]: 2.85 Folds
IC50 [5]: 0.0331 µM
IC50 [6]: 0.0306 µM
IC50 [7]: 0.0289 µM

N[C@@H](Cc1ccc(N(CCCl)CCCl)cc1)C(=O)O [Melphalan]
IC50 [1]: 4.19 µM
IC50 [2]: 12.8 µM
IC50 [3]: 24.6 µM
Resistance, Folds, aFGF 0.3 ng/ml + bFGF 1 ng/ml [4]: 3.07 Folds
Resistance, Folds, aFGF 1 ng/ml + bFGF 3 ng/ml [4]: 5.87 Folds
IC50 [5]: 4.02 µM
IC50 [6]: 4.48 µM
IC50 [7]: 3.97 µM

O=C(O)CCCc1ccc(N(CCCl)CCCl)cc1 [Chlorambucil]
IC50 [1]: 31.9 µM
IC50 [2]: 53.5 µM
IC50 [3]: 88.3 µM
Resistance, Folds, aFGF 0.3 ng/ml + bFGF 1 ng/ml [4]: 1.67 Folds
Resistance, Folds, aFGF 1 ng/ml + bFGF 3 ng/ml [4]: 2.77 Folds
IC50 [5]: 33.1 µM
IC50 [6]: 44.4 µM
IC50 [7]: 37.6 µM

Nc1ccn([C@@H]2O[C@H](CO)[C@@H](O)C2(F)F)c(=O)n1 [Gemcitabine]
IC50 [1]: 0.00684 µM
IC50 [2]: 0.00961 µM
IC50 [3]: 0.0131 µM
Resistance, Folds, aFGF 0.3 ng/ml + bFGF 1 ng/ml [4]: 1.41 Folds
Resistance, Folds, aFGF 1 ng/ml + bFGF 3 ng/ml [4]: 1.91 Folds
IC50 [5]: 0.00695 µM
IC50 [6]: 0.00612 µM
IC50 [7]: 0.00599 µM

O=C(O)CC(NC(=O)CP(=O)(O)O)C(=O)O [PALA, N-Phosphoracetyl-L-Asparate]
Resistance, Folds, aFGF 0.3 ng/ml + bFGF 1 ng/ml: 1.06 Folds
Resistance, Folds, aFGF 1 ng/ml + bFGF 3 ng/ml: 1.21 Folds
IC50 (Homo sapiens, 96 h, read-out: IC50, Control (drug treatment only, without FGF treatment), No suramin): 241 µM
IC50 (Homo sapiens, 96 h, read-out: IC50, aFGF 0.3 ng/ml + bFGF 1 ng/ml, No suramin): 255 µM
IC50 (Homo sapiens, 96 h, read-out: IC50, aFGF 1 ng/ml + bFGF 3 ng/ml, No suramin): 292 µM
IC50 (read-out: IC50, Control (without FGF treatment), Suramin, 15 μM): 249 µM
IC50 (read-out: IC50, aFGF 0.3 ng/ml + bFGF 1 ng/ml, With suramin): 236 µM
IC50 (read-out: IC50, aFGF 1 ng/ml + bFGF 3 ng/ml, With suramin): 201 µM

Sc1ncnc2nc[nH]c12 [6-Mercaptopurine]
IC50 [1]: 1.57 µM
IC50 [2]: 2.99 µM
IC50 [3]: 5.5 µM
Resistance, Folds, aFGF 0.3 ng/ml + bFGF 1 ng/ml [4]: 1.90 Folds
Resistance, Folds, aFGF 1 ng/ml + bFGF 3 ng/ml [4]: 3.50 Folds
IC50 [5]: 1.67 µM
IC50 [6]: 1.7 µM
IC50 [7]: 1.55 µM

Nc1nc2nc[nH]c2c(=S)[nH]1 [6-Thioguanine]
IC50 [1]: 0.28 µM
IC50 [2]: 0.96 µM
IC50 [3]: 1.44 µM
Resistance, Folds, aFGF 0.3 ng/ml + bFGF 1 ng/ml [4]: 3.43 Folds
Resistance, Folds, aFGF 1 ng/ml + bFGF 3 ng/ml [4]: 5.14 Folds
IC50 [5]: 0.32 µM
IC50 [6]: 0.32 µM
IC50 [7]: 0.3 µM

CC(=O)[C@]1(O)Cc2c(O)c3c(c(O)c2[C@@H](O[C@H]2C[C@H](N)[C@H](O)[C@H](C)O2)C1)C(=O)c1ccccc1C3=O [Idarubicin]
IC50 [1]: 0.00445 µM
IC50 [2]: 0.0119 µM
IC50 [3]: 0.0312 µM
Resistance, Folds, aFGF 0.3 ng/ml + bFGF 1 ng/ml [4]: 2.67 Folds
Resistance, Folds, aFGF 1 ng/ml + bFGF 3 ng/ml [4]: 7.01 Folds
IC50 [5]: 0.00505 µM
IC50 [7]: 0.0043 µM

O=P1(NCCCl)OCCCN1CCCl (centres unmarked) [Ifosfamide]
IC50 [1]: 2.66 µM
IC50 [2]: 5.01 µM
IC50 [3]: 8.12 µM
Resistance, Folds, aFGF 0.3 ng/ml + bFGF 1 ng/ml [4]: 1.88 Folds
Resistance, Folds, aFGF 1 ng/ml + bFGF 3 ng/ml [4]: 3.05 Folds
IC50 [5]: 2.23 µM
IC50 [6]: 2.22 µM
IC50 [7]: 2.55 µM
